Source: patent publication US20130303539A1, “COMPOUNDS WITH TRPV4 ACTIVITY, COMPOSITIONS AND ASSOCIATED METHODS THEREOF” (priority 2012, published 2013)

How the values were obtained:
[1] = tested on: retinal neurons (RGCs) and glia (Müller cells); test: Hypotonic stimuli: cell swelling (change in cell area) and [Ca++]i; format: cell-based; settings: osmolarity lowered from 300 mOsm to 190 mOsm
Text: FIG. 18A illustrates the effect of hypotonic stimuli on cell swelling as measured by change in cell area. Hypotonic stimuli were generated by replacing extracellular sodium levels to lower osmolarity from 300 mOsm to 190 mOsm.

MB model of glaucoma = test: IOP time course after a single eye drop in the MB model of glaucoma; format: in vivo, mouse
Method: Specifically, microbeads (MBs) were injected into the anterior chamber of a mouse eye as described in Example 2 with PBS-injected eyes used as controls. Compound 1 (10 mg/kg body weight) (or PBS vehicle) was injected intraperitoneally (IP). […] IOP was measured in mice between 10:00 AM and 1:00 PM with the TonoLab rebound tonometer (Colonial Medical Supply, Franconia, NH/Tyolat, Helsinki, Finland). Mice were sedated with IP injection of Avertin with final amount calculated by weight (e.g., 0.5 ml for 21-24 g animals). Animals were placed on a jack stand platform and the tonolab was clamped on a ring stand and centered onto the mid-cornea. During measurements animal were neither restrained nor touched. Each eye was measured twenty consecutive times, the highest and lowest values were discarded and the values were averaged.
FIG. 9 illustrates the short-term effects of a single dose of Compound 1 (eye drop) in the MB model of glaucoma. IOP was measured as described in Example 3 at the indicated time points after receiving a drop of Compound 1. Compound 1 reduced IOP beginning at 1 hour after dosing and continued through 6 hours after dosing.
FIG. 10 illustrates a time course of Compounds 1, 2, 5 and Compound 2-HCl as well as a positive control compound, timolol, with regard to inhibition of IOP. The experiment was conducted as described in Example 9. Each of the TRPV4 antagonists reduced IOP with a similar time course. Specifically, Compounds 1, 2, 5 and Compound 2-HCl reduced IOP for at least 6 hours after dosing.
FIG. 11 illustrates a time course of Compound 2-HCl activity. The experiment was conducted as described in Example 9. […] 2
FIG. 12 illustrates a comparison of the time course of Compound 2-HCl and Compound 5. The experiment was conducted as described in Example 9.

TRPV4 [2] = target: T1, TRPV4 (Mus musculus, UniProt Q9EPK8); test: TRPV4 agonist GSK-evoked [Ca++]i in retinal Müller glial cells; format: cell-based; design: endogenous in cells; host or cells: retinal Müller glial cells
T1 sequence (Q9EPK8 whole entry): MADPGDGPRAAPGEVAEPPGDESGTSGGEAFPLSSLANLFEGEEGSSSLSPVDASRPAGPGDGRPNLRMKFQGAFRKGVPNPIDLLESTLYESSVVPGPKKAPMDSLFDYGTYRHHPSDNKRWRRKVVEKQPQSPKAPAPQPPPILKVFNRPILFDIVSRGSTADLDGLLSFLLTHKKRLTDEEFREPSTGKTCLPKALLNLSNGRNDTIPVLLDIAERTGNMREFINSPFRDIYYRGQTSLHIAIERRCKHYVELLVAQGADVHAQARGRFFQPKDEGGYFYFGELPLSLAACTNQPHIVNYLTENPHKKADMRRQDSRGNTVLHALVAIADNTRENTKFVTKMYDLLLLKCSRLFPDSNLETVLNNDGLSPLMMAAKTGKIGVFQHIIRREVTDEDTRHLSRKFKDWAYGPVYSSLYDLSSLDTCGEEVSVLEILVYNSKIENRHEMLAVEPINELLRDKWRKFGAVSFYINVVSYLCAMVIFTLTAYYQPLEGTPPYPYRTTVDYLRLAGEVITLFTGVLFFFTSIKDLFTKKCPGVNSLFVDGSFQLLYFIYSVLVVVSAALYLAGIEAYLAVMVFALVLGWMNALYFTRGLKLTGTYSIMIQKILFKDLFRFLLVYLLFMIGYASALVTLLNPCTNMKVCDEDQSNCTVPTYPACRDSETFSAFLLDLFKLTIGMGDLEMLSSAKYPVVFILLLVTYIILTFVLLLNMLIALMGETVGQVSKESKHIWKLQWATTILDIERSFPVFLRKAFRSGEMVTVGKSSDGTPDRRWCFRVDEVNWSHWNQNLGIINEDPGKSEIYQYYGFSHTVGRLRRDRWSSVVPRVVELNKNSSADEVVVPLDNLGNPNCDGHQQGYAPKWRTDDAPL

TRPV4 [3] = target: T1, TRPV4; test: AGB cation influx into retinal cells (anti-AGB antibody); format: cell-based; design: these two cell types express TRPV4 channels in the mouse retina; from tissue; host or cells: mouse retina; settings: mouse retina
Method: FIG. 16 illustrates the effect of the TRPV4 agonist GSK on cation influx into mouse retinal cells of the mouse retina. The influx was determined using the anti-AGB antibody, as described by Marc RE (J Comp Neurol 407(1): 47-64, 1999). AGB is a membrane permeant cation that can flow through most known cation channels. Using an anti-AGB antibody, it can be determined where the cation flux occurs and, therefore, which cells are activated.

retinal ganglion cells [4] = test: TUNEL assay of apoptotic cell death in retina; format: cell-based
Method: Terminal deoxynucleotidyl transferase-mediated dUTP-biotin nick end labeling (TUNEL) is a common method for detecting fragmentation that results from apoptotic signaling cascades. Retinas were embedded, cryosectioned, and processed for the TUNEL assay following the protocol by Gavrieli et al. (1992). After 30 min. rehydration in 70% ethanol, 2×5 min. rinses in PBS and 1% Triton-X in 1% citrate buffer (pH 7.3), the slides were subjected to a final rinse in PBS. Slides were then incubated for 30 min. in the reaction buffer (30 mM Trizma-HCl, 140 mM Na^+ cacodylate, 1.0 mM CaCl2, 0.2% Triton X-100, pH 7.2). Positive controls were treated with DNAse I (Roche Diagnostics; Branford, Conn.; 10 U/ml) in the reaction buffer. Next, slides were treated for 1 hour with 0.03 units/pi terminal transferase and 4 μM biotin-16-dUTP (Roche Diagnostics). The reaction was terminated in 30 mM Na+ citrate, 300 mM NaCl and 0.2% Triton X-100 in PBS (5 min.) and rinsed in PBS (2×5 min), exposed to 1% bovine serum albumin in PBS for 20 min and rinsed. Apoptotic cells were visualized with a confocal microscope (Zeiss LSM510) and categorized by size. […] This was blocked by RuR and by the TRPV4 antagonist Compound 1.

retinal ganglion cells [5] = test: In vivo intraocular injection of TRPV4 agonist GSK, NeuN+ RGC count; settings: 100-300 nM injected intraocularly, retinas isolated after 48 hours
Method: In this experiment, GSK (100-300 nM) was injected intraocularly with a Hamilton syringe. Retinas were isolated after 48 hours, fixed and labeled with the RGC marker antibody NeuN. NeuN-immunopositive somata in the ganglion cell layer, shown in the panel on the right, were counted. The bar graph represents quantification of NeuN^+ cells in the indicated experimental groups.

TRPV4 [6] = target: T2, TRPV4 (Homo sapiens, UniProt Q9HBA0); test: Calcium imaging (fura-2) in human trabecular meshwork cells; format: cell-based; settings: bath application 100 nM, human TM cells, room temperature
T2 construct: endogenous in cells; host or cells: primary human trabecular meshwork cells from trabeculectomy tissue
T2 sequence (Q9HBA0 whole entry): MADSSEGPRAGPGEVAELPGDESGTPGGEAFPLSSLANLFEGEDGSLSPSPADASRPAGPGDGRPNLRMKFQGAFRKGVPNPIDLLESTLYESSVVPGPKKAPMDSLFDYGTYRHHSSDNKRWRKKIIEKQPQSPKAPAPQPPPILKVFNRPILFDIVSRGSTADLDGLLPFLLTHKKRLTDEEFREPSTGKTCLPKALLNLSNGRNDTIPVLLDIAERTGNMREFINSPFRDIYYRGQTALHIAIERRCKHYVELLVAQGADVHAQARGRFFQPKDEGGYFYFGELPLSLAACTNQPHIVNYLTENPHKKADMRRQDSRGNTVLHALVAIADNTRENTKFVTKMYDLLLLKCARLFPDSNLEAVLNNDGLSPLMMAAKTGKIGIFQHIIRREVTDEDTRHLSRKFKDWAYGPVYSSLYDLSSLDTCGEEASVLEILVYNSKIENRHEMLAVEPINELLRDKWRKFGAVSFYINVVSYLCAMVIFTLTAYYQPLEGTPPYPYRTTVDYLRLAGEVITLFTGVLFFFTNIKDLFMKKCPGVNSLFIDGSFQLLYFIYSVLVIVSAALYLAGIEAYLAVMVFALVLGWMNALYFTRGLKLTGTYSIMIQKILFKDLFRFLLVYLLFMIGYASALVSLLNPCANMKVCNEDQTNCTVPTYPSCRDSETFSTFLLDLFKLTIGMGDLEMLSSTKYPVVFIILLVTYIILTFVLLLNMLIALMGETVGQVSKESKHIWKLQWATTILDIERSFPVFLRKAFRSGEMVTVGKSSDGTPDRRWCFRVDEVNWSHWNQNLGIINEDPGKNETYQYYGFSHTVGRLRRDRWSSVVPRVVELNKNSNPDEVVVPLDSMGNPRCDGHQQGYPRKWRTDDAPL
Method: Pieces of tissue were isolated from a trabeculectomy. Trabecular meshwork cells (TM) were kept in cold L15 medium and then loaded with Fura-2 (10 μm) for 1 hour. Fibroblast-shaped cells were imaged from a TM chunk (˜500 μm×500 μm) with a 40× water immersion objective. The sampling rate was at 6 second intervals. Krebs Ringer Bicarbonate Recording buffer (7.4, 284 mOsm) was prepared as reported by Anthony et al., 1998, IOVS; Prostaglandin F2α receptors in the human trabecular meshwork.
Calcium imaging was performed on TM cells isolated from human patients. In brief, dissociated human TM cells embedded within the tissue were dissociated and plated on concanavalin A-coated (0.2 mg/ml; Sigma) coverslips, loaded with fura-2 AM ([…]; Invitrogen Life Technologies) for 15 min-1 hour and washed for 10 min in dye-free L-15 medium. […] Fluorescence emission was high-pass filtered at 510 nm and captured with cooled digital CCD cameras (HQ2, Photometrics). […] Fluorescence imaging was performed on regions of interest (ROIs) encompassing the TM cell somata, typically at 3×3 binning. Background fluorescence was measured in similarly sized ROIs in neighboring areas devoid of cells. After sequential image acquisition (0.167-0.5 Hz) of cell fluorescence at 340/380 nm, the background was subtracted. […]

Müller cells = test: Arachidonic acid-induced [Ca2+]i in Müller cells; format: cell-based; settings: 10 μM, Müller cells
Method: This response is blocked by Compound 1 (1 μM).

CC(=O)OCOC(=O)CN(CC(=O)OCOC(C)=O)c1ccccc1OCCOc1ccccc1N(CC(=O)OCOC(C)=O)CC(=O)OCOC(C)=O [BAPTA-AM, reference compound]
cell swelling (change in cell area) [1]: significantly reduced

Cc1c(C(=O)Nc2cccc(C(=O)OC(C)C)c2)cc(-c2ccccc2)n1CCCN1CCOCC1.Cl [Compound 2-HCl, iso-propyl 3-(2-methyl-1-(3-morpholinopropyl)-5-phenyl-1H-pyrrole-3-carboxamido)benzoate hydrochloride]
time of maximal inhibition of IOP after dosing (MB model of glaucoma; single dose eye drop): 6 h | time until IOP reached pre-dose levels (MB model of glaucoma; single dose eye drop, post-dosing): 33 h

CC(C)C[C@H](NC(=O)c1cc2ccccc2s1)C(=O)N1CCN(C(=O)[C@H](CO)NS(=O)(=O)c2ccc(Cl)cc2Cl)CC1 [GSK1016790A, reference compound]
intracellular calcium concentration [Ca++]i, agonist effect (TRPV4 [2]): evokes sustained increases in intracellular calcium concentration | number of AGB+ cells (cation influx), agonist effect (TRPV4 [3]): increased the number of AGB^+ retinal ganglion cells and Müller glial cells | death of retinal ganglion cells (increased TUNEL staining), agonist effect (retinal ganglion cells [4]; 100 nM): induced death of retinal ganglion cells | number of retinal ganglion cells (NeuN+ somata), agonist effect (retinal ganglion cells [5]): substantially reduces the number of retinal ganglion cells | 340/380 fluorescence ratio (intracellular calcium concentration [Ca++]i) (TRPV4 [6]): increased 340/380 fluorescence ratio

N.N.N.N.N.N.N.N.N.N.N.N.N.N.[Cl-].[Cl-].[Cl-].[Cl-].[Cl-].[Cl-].[O-2].[O-2].[Ru+3].[Ru+3].[Ru+4] [Ruthenium Red]
apoptotic cell death (TUNEL) induced by hypotonic swelling (retinal ganglion cells [4]; 190 mOsm saline, Compound 1 1 uM, RuR 10 μM): block apoptotic cell death | apoptotic cell death (TUNEL) induced by the TRPV4 agonist GSK (retinal ganglion cells [4]; GSK 100 nM, Compound 1 1 uM, RuR 10 μM): block apoptotic cell death

CCCCC/C=C\C/C=C\C/C=C\C/C=C\CCCC(=O)O [arachidonic acid, reference compound]
[Ca2+]i response (Müller cells): increase in [Ca2+]i

CC(C)(C)NC[C@H](O)COc1nsnc1N1CCOCC1 [timolol, reference compound]
inhibition of IOP, curve relative to the exemplary TRPV4 antagonists (MB model of glaucoma; positive control, eye drop): left-shifted dose-response curve
